{"source": "patent US20170209447A1", "about": "“Use of PNP Inhibitor to Treat Relapse of Malignancy after Hematopoietic Stem Cell Transplant” (Nitor Therapeutics, priority 2014, published 2017)", "key": {"B16 tumors": {"system": "B16 tumors", "assay": "PNPi as anticancer agent in mouse melanoma model", "type": "in vivo, C57BL/6 mice", "settings": "cyclophosphamide 100 mg/kg IP single dose; FIG. 6", "method": "Evaluation of PNPi as Anticancer Agent in Mouse Melanoma Model.\nTreatment with the NTR001 was initiated on day 6 after injection of tumor cells. Tumor volume and survival were recorded every 3-4 days."}, "human TLR2": {"biological_target": "T1, human TLR2 (Homo sapiens, UniProt O60603)", "T1 construct": "expressed in transfected cells; host or cells: HEK293", "T1 sequence (O60603 21-784)": "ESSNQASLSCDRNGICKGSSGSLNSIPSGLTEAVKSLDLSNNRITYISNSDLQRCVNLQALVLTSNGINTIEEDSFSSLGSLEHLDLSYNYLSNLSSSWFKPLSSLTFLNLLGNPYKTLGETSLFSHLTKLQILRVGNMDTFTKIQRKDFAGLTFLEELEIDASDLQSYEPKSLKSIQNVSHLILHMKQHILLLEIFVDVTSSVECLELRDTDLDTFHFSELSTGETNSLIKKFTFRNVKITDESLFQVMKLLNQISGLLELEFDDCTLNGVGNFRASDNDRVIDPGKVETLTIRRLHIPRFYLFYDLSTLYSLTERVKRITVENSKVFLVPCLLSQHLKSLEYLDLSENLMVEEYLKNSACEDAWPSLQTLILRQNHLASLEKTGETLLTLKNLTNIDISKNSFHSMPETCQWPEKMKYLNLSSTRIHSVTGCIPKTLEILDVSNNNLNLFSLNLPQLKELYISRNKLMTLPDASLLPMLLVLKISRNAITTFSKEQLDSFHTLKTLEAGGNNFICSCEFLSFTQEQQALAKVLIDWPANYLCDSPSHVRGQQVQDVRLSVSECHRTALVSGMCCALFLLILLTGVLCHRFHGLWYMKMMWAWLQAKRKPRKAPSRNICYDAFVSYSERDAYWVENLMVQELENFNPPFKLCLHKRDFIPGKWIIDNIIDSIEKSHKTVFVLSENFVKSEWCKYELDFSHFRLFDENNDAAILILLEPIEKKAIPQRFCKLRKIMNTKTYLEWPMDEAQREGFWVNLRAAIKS", "assay": "TLR ligand screening: NF-κB SEAP reporter in HEK293 cells expressing TLR2", "type": "cell-based", "settings": "FIG. 2", "method": "(§1) Toll-Like Receptor (TLR) Ligand Screening: In-vitro Activity of the PNPi, Guanosine and Inosine on Seven Different Human TLRs (TLR2, 3, 4, 5, 7, 8 and 9) as a Potential Agonist.\n(§2) Method: TLR stimulation is tested by assessing NF-KB activation in HEK293 cells expressing a given TLR. The Secreted Embryonic Alkaline Phosphatase (SEAP) reporter is under the control of a promoter inducible by the transcription factor NF-κB.\n(§3) This reporter gene allows the monitoring of signaling through the TLR, based on the activation of NF-κB. The compounds are evaluated at one concentration and compared to control ligands. This step is performed in triplicate."}, "human TLR4": {"biological_target": "T2, human TLR4 (Homo sapiens, UniProt O00206)", "T2 construct": "expressed in transfected cells; host or cells: HEK293", "T2 sequence (O00206 24-839)": "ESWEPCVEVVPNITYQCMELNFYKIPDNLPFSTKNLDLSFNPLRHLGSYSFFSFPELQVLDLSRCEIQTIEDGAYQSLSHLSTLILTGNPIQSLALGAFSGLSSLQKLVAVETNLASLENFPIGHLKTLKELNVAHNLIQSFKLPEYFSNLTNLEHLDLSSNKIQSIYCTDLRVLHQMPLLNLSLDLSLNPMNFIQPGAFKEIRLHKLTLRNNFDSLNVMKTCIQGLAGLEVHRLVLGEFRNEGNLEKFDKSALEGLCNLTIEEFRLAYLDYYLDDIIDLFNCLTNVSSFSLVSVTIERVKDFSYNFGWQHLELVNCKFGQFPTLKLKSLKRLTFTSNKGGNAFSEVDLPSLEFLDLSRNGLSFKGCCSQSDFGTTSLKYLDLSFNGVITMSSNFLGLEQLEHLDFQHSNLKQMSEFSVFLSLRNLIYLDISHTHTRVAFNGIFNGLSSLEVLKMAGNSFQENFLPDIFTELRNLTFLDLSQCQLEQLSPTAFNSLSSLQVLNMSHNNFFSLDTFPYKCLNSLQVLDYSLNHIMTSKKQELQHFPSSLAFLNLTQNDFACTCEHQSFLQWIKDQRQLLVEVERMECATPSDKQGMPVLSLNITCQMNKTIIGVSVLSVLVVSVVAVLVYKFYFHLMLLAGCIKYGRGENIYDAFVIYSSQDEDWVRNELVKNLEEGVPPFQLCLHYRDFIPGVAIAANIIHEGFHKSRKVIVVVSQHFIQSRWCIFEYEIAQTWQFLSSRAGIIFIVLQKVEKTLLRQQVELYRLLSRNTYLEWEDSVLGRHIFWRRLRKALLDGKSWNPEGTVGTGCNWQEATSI", "T2 sequence (Q9Y6Y9 17-160 partner limits assumed)": "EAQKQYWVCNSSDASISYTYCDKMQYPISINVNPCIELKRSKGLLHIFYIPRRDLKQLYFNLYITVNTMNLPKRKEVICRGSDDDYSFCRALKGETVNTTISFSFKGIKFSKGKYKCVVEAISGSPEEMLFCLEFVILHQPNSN", "assay": "TLR ligand screening: NF-κB SEAP reporter in HEK293 cells expressing TLR4", "type": "cell-based", "settings": "FIG. 2", "method": "as §1, §2, §3"}, "tetanus toxoid vaccine": {"system": "tetanus toxoid vaccine", "assay": "PNPi as adjuvant in tetanus toxoid vaccine efficacy study (tetanus toxoid mouse model)", "type": "in vivo, mice", "settings": "compared to vehicle treated group", "method": "This Example Evaluates PNPi as an Adjuvant in Tetanus Toxoid Vaccine Efficacy Study.\nMethod: Tetanus toxoid (TT) was used to vaccinate mice thrice, two weeks apart. Mice were treated by oral administration of compounds NTR001 and NTR002 and serum was collected at various time points for antibody titer and interferon-g analysis. Mice in Groups 2-6 (Table 2) are vaccinated subcutaneously with 0.1 ml tetanus toxoid vaccine on DAYS 0, 14 and 28. Mice in Group 1 (Table 1) received no vaccine. Antibody titers for DAYS 38 are determined by ELISA using tetanus toxoid coated microtiter plates and anti-mouse conjugate. Sera from DAY 30 are assayed by ELISA for interferon-g."}, "[1]": {"system": "L. monocytogenes (ATCC Strain35152, hemolytic substrain)", "settings": "30 mg/kg PO or IP, or 2 mg/kg drinking water; 1×10^6 CFU i.v.; FIGS. 7 and 9"}, "[2]": {"settings": "Guanosine 100 uM in combination with NTR001 (10 uM) and/or Inosine (100 uM)"}, "[3]": {"settings": "one concentration: Guanosine 100 uM, NTR001 10 uM, Inosine 100 uM, HEK293, triplicate"}}, "data": [{"smiles": "O=P1(N(CCCl)CCCl)NCCCO1", "note": "(centres unmarked) [Cyclcophosphamide, cyclophosphamide, reference compound]", "values": [{"measurement": "survival", "setting": "B16 tumors", "value": 30, "unit": "%"}]}, {"smiles": "Nc1nc2c(ncn2[C@@H]2O[C@H](CO)[C@@H](O)[C@H]2O)c(=O)[nH]1", "note": "[Guanosine, guanosine]", "values": [{"measurement": "stimulatory effect on human TLR2 (NF-κB activation), combination", "setting": "human TLR2; [2]", "value": "significant stimulatory effect"}, {"measurement": "stimulatory effect on human TLR2 (NF-κB activation)", "setting": "human TLR2; [3]", "value": "significant stimulatory effect"}, {"measurement": "stimulatory effect on human TLR4 (NF-κB activation), combination", "setting": "human TLR4; [2]", "value": "significant stimulatory effect"}, {"measurement": "stimulatory effect on human TLR4 (NF-κB activation)", "setting": "human TLR4; [3]", "value": "significant stimulatory effect"}]}, {"smiles": "O=c1[nH]cnc2c(CN3C[C@H](CO)[C@@H](O)C3)c[nH]c12", "note": "[NTR002, 1,5-dihydro-7-[[(3R,4R)-3-hydroxy-4-(hydroxymethyl)pyrrolidin-1-yl]methyl]-4H-pyrrolo[3,2-d]pyrimidin-4-one]", "values": [{"measurement": "serum interferon-g levels", "setting": "tetanus toxoid vaccine; day 30, ELISA, high dose group 60 mg/kg p.o., FIG. 4", "value": "elevated"}, {"measurement": "serum tetanus toxoid antibody titers", "setting": "tetanus toxoid vaccine; day 38, ELISA, p.o. 30 mg/kg (6 days of treatment) and 60 mg/kg (3 days of treatment), FIG. 3", "value": "significantly elevated"}, {"measurement": "weight loss", "setting": "[1]", "value": "significant decrease"}]}]}
